Measured values from patent US20090203634A1, “Compositions and Uses of Amooranin Compounds” (Variety Children's Hospital d/b/a Miami Children's Hospital, priority 2005, published 2009).
In brackets after ≈: the same amount, converted by molar mass. Marks after values point to notes of the source that are not given here.

Legend:
[1] = system: CEM/VLB; test: MTT cytotoxicity assay (Examples 1-5); type: cell-based, human
From the text: (§1) Cytotoxicity Assay (Examples 1-5). […] Cell proliferation kit I (MTT) from Roche Diagnostics GmbH (Indianapolis, Ind.) was used for cytotoxicity assays and manufacturers protocol was followed for the assay.

[2] = system: CEM; test: MTT cytotoxicity assay (Examples 1-5); type: cell-based, human; details: mean ± SD (n = 3), read-out: AMR IC50
From the text: as §1

[3] = system: SW620/Ad-300; test: MTT cytotoxicity assay (Examples 1-5); type: cell-based, human
From the text: as §1

[4] = system: SW620; test: MTT cytotoxicity assay (Examples 1-5); type: cell-based, human; details: mean ± SD (n = 3), read-out: AMR IC50
From the text: Cell proliferation kit I (MTT) from Roche Diagnostics GmbH (Indianapolis, Ind.) was used for cytotoxicity assays and manufacturers protocol was followed for the assay.

[5] = system: CEM/VLB; test: DNA histogram analysis of cell cycle distribution; type: cell-based, human; details: AMR 0-2.5 μg/ml, 48 hours, up from 18.0% without AMR
Procedure: (§2) DNA Histogram Analysis. Following drug exposure for 48 hours, cells were centrifuged and resuspended in propidium iodide-hypotonic citrate solution for 1 hour before flow cytometric analysis of cell cycle distribution (Ramachandran, C. et al. Biochem Pharmacol, 1995, 49:545-552).

[6] = system: CEM; test: DNA histogram analysis of cell cycle distribution; type: cell-based, human; details: AMR 0-2.5 μg/ml, 48 hours, up from 18.0% without AMR
Procedure: as §2

[7] = system: SW620/Ad-300; test: DNA histogram analysis of cell cycle distribution; type: cell-based, human; details: AMR 0-2.5 μg/ml, 48 hours, up from 15.6% without AMR
Procedure: as §2

[8] = system: SW620; test: DNA histogram analysis of cell cycle distribution; type: cell-based, human; details: AMR 0-2.5 μg/ml, 48 hours, up from 12.5% without AMR
Procedure: as §2

[9] = system: CEM/VLB; test: Cellular DOX content by flow cytometry; type: cell-based, human; details: DOX 2 μg/ml with 1 and 2 μg/ml AMR
Procedure: (§3) Cellular DOX Content. […] Cellular DOX fluorescence was analyzed in a Coulter Elite flow cytometer. Fluorescence emission (above 530 nm) from at least 10,000 cells were collected, amplified and scaled to generate a single parameter histogram (Ramachandran, C. et al. Biochem Phammacol, 1995, 49:545-552).

[10] = system: CEM; test: Cellular DOX content by flow cytometry; type: cell-based, human; details: DOX 2 μg/ml with 1 or 2 μg/ml AMR
Procedure: as §3

[11] = system: SW620/Ad-300; test: Cellular DOX content by flow cytometry; type: cell-based, human; details: DOX 2 μg/ml with 1 and 2 μg/ml AMR
Procedure: as §3

[12] = system: SW620; test: Cellular DOX content by flow cytometry; type: cell-based, human; details: DOX 2 μg/ml with 1 or 2 μg/ml AMR
Procedure: as §3

[13] = system: MCF-10A; test: MTT cytotoxicity assay (Examples 6-8); type: cell-based, human; details: 0-8 μg/ml AMR for 48 hours
Procedure: (§4) Cytotoxicity assay (Examples 6-8). MTT assay was used to determine drug sensitivity (Hansen, M. B. et al. J Immunol Methods, 1989, 119:203-210). Cells (1×10^4) were grown in 96-well plates and after 48 hours, the medium was replaced with new medium. The cells were incubated at 37° C. with varying concentrations of AMR for 48 hours at 37° C. Cell viability was then assayed by adding MTT dye (500 μg/ml). Six hours after incubation period, MTT containing medium was removed. The formazan crystals were dissolved in 100 μl/well dimethyl sulfoxide, and the plates were read in BIO-RAD Benchmark Microplate Reader at 570 nm wavelength. All experiments were repeated three times with three replications in each and the mean values were estimated. Student's t test was used to determine the significant difference between IC50 values.

[14] = system: MCF-7/TH; test: MTT cytotoxicity assay (Examples 6-8); type: cell-based, human; details: 0-8 μg/ml AMR for 48 hours
Procedure: as §4

[15] = system: MCF-7; test: MTT cytotoxicity assay (Examples 6-8); type: cell-based, human; details: 0-8 μg/ml AMR for 48 hours
Procedure: as §4

[16] = system: MCF-10A; test: Cell cycle analysis by flow cytometry; type: cell-based, human; details: 1 μg/ml AMR
Procedure: (§5) Cell cycle analysis. The number of cells in each stage of the cell cycle was monitored by flow cytometric analysis of cellular DNA content after staining with 1 mg/ml propidium iodide (Chen, G. et al. Cancer Res, 1993, 53:2544-2547). Data was analyzed to determine the percentage of cells at each phase of the cell cycle (G0+G1, S, and G2+M).

[17] = system: MCF-7/TH; test: Cell cycle analysis by flow cytometry; type: cell-based, human; details: 1 μg/ml AMR, one range printed for MCF-7 and MCF-7/TH together
Procedure: as §5

[18] = system: MCF-7; test: Cell cycle analysis by flow cytometry; type: cell-based, human; details: 1 μg/ml AMR, one range printed for MCF-7 and MCF-7/TH together
Procedure: as §5

[19] = system: MCF-10A; test: TUNEL assay of DNA fragmentation; type: cell-based, human
Procedure: (§6) Analysis of DNA fragmentation by agarose gel electrophoresis. To assess the pattern of DNA cleavage caused by AMR, agarose gel electrophoresis was performed as described by Cohen and Duke (Cohen, J. J. and Duke, R. C. J Immunol, 1984, 132:38-42). Briefly, control and drug-treated cells (2×10^6 cells) were lysed with 0.5 ml lysis buffer containing 0.2% Triton X-100 at room temperature for 30 minutes. The supernatant fractions were collected by centrifugation at 12,000×g for 30 minutes. The DNA in these fractions was precipitated overnight with 100 μl 5 M sodium chloride and 0.5 ml 2-isopropanol at −20° C. The DNA was dissolved in 20 μl of 10 mM Tris-HCl (pH 7.4) and 1 mM EDTA buffer. RNase (10 units) was added to the samples before incubating at 60° C. for 1 hour. An equal volume of loading buffer was added afterwards and the samples were subjected to electrophoresis on a 2% agarose gel in Tris borate buffer at 50 V for 3 hours. The agarose gel was stained with ethidium bromide, and DNA fragmentation pattern was visualized in a UV transilluminator. AMR-induced DNA fragmentation was also analyzed by TUNEL assay using in situ cell detection kit according to manufacturer's instructions. Briefly, cells were permeabilized in a solution containing 0.1% Triton X-100 and 0.1% (w/v) sodium citrate for 2 minutes. After washing in PBS, cells were incubated with label solution and terminal transferase. Cells were incubated without terminal deoxynucleotidyl transferase was used as negative control. DNase (1 μg/ml) treated cells incubated with label solution in the presence of terminal deoxynucleotidyl transferase (TUNEL reaction mixture) was used as positive control and the details of TUNEL assay have been described earlier (Ramachandran, C. et al. Anticancer Res, 1997, 17:3369-3376).

[20] = system: MCF-7/TH; test: TUNEL assay of DNA fragmentation; type: cell-based, human
Procedure: as §6

[21] = system: MCF-7; test: TUNEL assay of DNA fragmentation; type: cell-based, human
Procedure: as §6

[22] = system: MCF-10A; test: DNA fragmentation by agarose gel electrophoresis; type: cell-based, human
Procedure: as §6

[23] = system: MCF-7/TH; test: DNA fragmentation by agarose gel electrophoresis; type: cell-based, human
Procedure: as §6

[24] = system: MCF-7; test: DNA fragmentation by agarose gel electrophoresis; type: cell-based, human
Procedure: as §6

[25] = system: MCF-10A; test: Caspase-8 (LETD) activity by flow cytometry; type: cell-based, human; details: AMR 1-8 μg/ml, 48 hours
Procedure: (§7) Detection of apoptosis and caspase activity. Breast carcinoma or breast epithelial cells were incubated for 48 hours in the presence or absence of AMR (1-8 μg/ml). AMR-induced apoptosis was evaluated by Fluorescein Caspase (VAD) Activity Kit and caspase-8 (LETD) Activity Kit according to manufacturer's instructions ([…]-Calvo, M. et al. J Biol Chem, 1998, 273:32608-32613).

[26] = system: MCF-7/TH; test: Caspase-8 (LETD) activity by flow cytometry; type: cell-based, human; details: AMR 1-8 μg/ml, 48 hours
Procedure: as §7

[27] = system: MCF-7; test: Caspase-8 (LETD) activity by flow cytometry; type: cell-based, human; details: AMR 1-8 μg/ml, 48 hours
Procedure: as §7

[28] = system: SW620 human tumor xenografts; test: Xenograft studies with AMR in nude mice; type: in vivo; details: for Therapeutic ratio: Therapeutic Ratio = 100 - Tumor Growth Rate Index (GRI)
Procedure: Xenograft studies with AMR in nude mice. Male athymic nude (nu/nu) mice of the BALB/c strain (4-5 weeks old) were purchased from Taconic Labs, NY. SW620 colon carcinoma cells (10^6/site) in 0.1 ml of Hank's balanced salt solution were injected subcutaneously into the right flank of the nude mice using a 21 gauge needle. When the tumors reached approximately 0.5 cm^3 size in volume (usually 14 days), chemotherapy with AMR was started involving six animals in each group with almost similar size tumors. […] AMR was dissolved in 1:1 mixture of Cremophor EL and ethanol for administration and the control treatments were doxorubicin dissolved in phosphate dissolved saline and saline alone (0 mg/kg). Tumor size (length and width) was recorded on every fifth day of treatment along with body weight and survival data. Tumor volume was calculated using the following formula: […]
Tumor growth rate was calculated as mean V1/V0 where V1 is the volume on the evaluation day of treatment effect and V0 is that on the first day of treatment. The growth rate index and therapeutic index estimates were calculated using the following formulae:
Therapeutic Ratio=100—Tumor Growth Rate Index (GRI)

CC1(C)CC[C@]2(C(=O)O)CC[C@]3(C)C(=CC[C@@H]4[C@@]5(CO)CCC(=O)C(C)(C)[C@@H]5CC[C@]43C)[C@@H]2C1 [AMR, 25-hydroxy-3-oxoolean-12-en-28-oic acid]
Modulator Index (MI = fold decrease in resistance/modulator in μM concentration) ([1]; CEM/VLB): 40
resistance to AMR ([1]; CEM/VLB versus CEM): 1.9 fold
IC50 ([1]; CEM/VLB, mean ± SD (n = 3), read-out: AMR IC50): 10.2 ± 0.11 µM
IC50 [2]: 5.31 ± 0.02 µM
Modulator Index (MI = fold decrease in resistance/modulator in μM concentration) ([3]; SW620/Ad-300): 41.6
IC50 ([3]; SW620/Ad-300, mean ± SD (n = 3), read-out: AMR IC50): 12.7 ± 0.27 µM
resistance to AMR ([3]; SW620/Ad-300 versus SW620): 1.6 fold
IC50 [4]: 7.7 ± 0.15 µM
percentage of G2+M cells [5]: 48.7%
percentage of G2+M cells [6]: 61.1%
G2+M percentage [7]: 52.8%
G2+M percentage [8]: 59.5%
cellular DOX accumulation [9]: increased cellular DOX accumulation in a dose-dependent manner
cellular DOX fluorescence [10]: No significant change
cellular DOX accumulation [11]: increased cellular DOX accumulation in a dose-dependent manner
cellular DOX fluorescence [12]: No significant change
IC50 [13]: 6.9 µg/mL (≈ 14.7 µM)
IC50 [14]: 6.8 µg/mL (≈ 14.4 µM)
IC50 [15]: 3.8 µg/mL (≈ 8.07 µM)
G2/M phase arrest [16]: does not induce any G2/M phase arrest
accumulation in G2+M phase population [17]: 12.4%-32.2%
accumulation in G2+M phase population [18]: 12.4%-32.2%
cells with DNA fragmentation (TUNEL) ([19]; AMR 1-8 μg/ml, 48 hours): 0-37.1%
cells with DNA fragmentation (TUNEL) ([20]; AMR 1-8 μg/ml, 48 hours): 32-48.7%
cells with DNA fragmentation (TUNEL) ([21]; AMR 1-8 μg/ml, 48 hours): 37.3-72.1%
DNA fragmentation ([22]; 1 μg/ml AMR for 48 hours): almost undetectable
DNA ladder pattern ([22]; AMR treatment for 48 hours): less distinct
DNA ladder pattern ([23]; 1 μg/ml AMR for 48 hours): highly visible
DNA ladder pattern ([23]; AMR treatment for 48 hours): distinct ladder pattern
DNA ladder pattern ([24]; 1 μg/ml AMR for 48 hours): highly visible
DNA ladder pattern ([24]; AMR treatment for 48 hours): distinct ladder pattern
cells with caspase activation (caspase-8 positive cells) [25]: 4-32.8%
cells with caspase activation (caspase-8 positive cells) [26]: 28.5-43.2%
cells with caspase activation (caspase-8 positive cells) [27]: 40.8-71%
Survival (%) ([28]; 2 mg/kg): 83.3%
Therapeutic ratio ([28]; 2 mg/kg): 61.3**
Survival (%) ([28]; 5 mg/kg): 57.1%
Therapeutic ratio ([28]; 5 mg/kg): 37.6**
Survival (%) ([28]; 10 mg/kg): 57.1%
Therapeutic ratio ([28]; 10 mg/kg): 41.9**
tumor growth rate ([28]; AMR 2-10 mg/kg intraperitoneal, compared to doxorubicin (2 mg/kg) or saline): significantly reduced tumor growth rate

DNase [reference compound]
apoptotic cells (TUNEL) ([19]; DNase-treated positive control): more than 95%
apoptotic cells (TUNEL) ([20]; DNase-treated positive control): more than 95%
apoptotic cells (TUNEL) ([21]; DNase-treated positive control): more than 95%
